Laboratory results reported in patent US5919940A, “Metalloproteinase inhibitors” (British Biotech Pharmaceuticals Limited, priority 1998, dated 1999).
Like-named read-outs stand apart in the source and are kept apart here.

How the values were obtained:
Collagenase = assay: Inhibition of collagenase (acetylated 14C collagen hydrolysis; Cawston and Barrett); assay type: biochemical; conditions: 37°, 16 hours, pH 7.5, read-out: In vitro inhibitory activity IC50, Collagenase
From the text: The samples were centrifuged to sediment undigested collagen, and an aliquot of the radioactive supernatant removed for assay on a scintillation counter as a measure of hydrolysis.

72 kDa Gelatinase = target: T1, 72 kDa Gelatinase (Homo sapiens, UniProt P08253); assay: Inhibition of 72 kDa gelatinase (14C-radiolabelled gelatin; Sellers et al); assay type: biochemical
T1 construct: endogenous in cells; host or cells: RPMI-7951 cells
T1 sequence (P08253 110-660): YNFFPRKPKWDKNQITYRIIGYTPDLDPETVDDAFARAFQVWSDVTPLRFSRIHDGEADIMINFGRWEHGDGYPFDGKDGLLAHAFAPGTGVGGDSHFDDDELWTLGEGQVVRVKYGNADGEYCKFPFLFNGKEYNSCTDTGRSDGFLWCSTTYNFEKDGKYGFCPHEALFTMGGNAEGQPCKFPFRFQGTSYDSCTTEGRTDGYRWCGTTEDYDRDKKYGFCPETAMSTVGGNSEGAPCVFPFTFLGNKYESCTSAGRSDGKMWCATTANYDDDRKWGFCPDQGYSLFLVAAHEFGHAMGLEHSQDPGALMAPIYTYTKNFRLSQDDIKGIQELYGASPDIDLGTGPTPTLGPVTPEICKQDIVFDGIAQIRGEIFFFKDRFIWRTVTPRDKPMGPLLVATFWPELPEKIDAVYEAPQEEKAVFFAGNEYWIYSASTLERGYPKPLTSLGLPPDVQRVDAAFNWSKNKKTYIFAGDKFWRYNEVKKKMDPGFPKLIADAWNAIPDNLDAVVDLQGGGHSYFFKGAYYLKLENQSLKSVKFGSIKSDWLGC

stromelysin [1] = target: T2, stromelysin (Homo sapiens, UniProt P08254); assay: biochemical
T2 sequence (P08254 100-477): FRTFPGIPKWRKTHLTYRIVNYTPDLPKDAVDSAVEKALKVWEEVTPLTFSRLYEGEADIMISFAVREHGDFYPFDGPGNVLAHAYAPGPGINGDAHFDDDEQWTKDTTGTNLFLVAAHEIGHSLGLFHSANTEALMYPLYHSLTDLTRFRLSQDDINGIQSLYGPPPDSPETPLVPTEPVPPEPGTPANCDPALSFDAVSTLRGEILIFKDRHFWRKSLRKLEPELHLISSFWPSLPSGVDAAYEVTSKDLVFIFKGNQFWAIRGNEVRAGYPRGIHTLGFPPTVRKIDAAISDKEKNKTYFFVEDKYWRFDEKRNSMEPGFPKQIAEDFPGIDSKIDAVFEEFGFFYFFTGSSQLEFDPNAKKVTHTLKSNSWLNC
From the text: (§1) The casein was acetylated ^14 C casein prepared by the method of Cawston et al (ibid).

stromelysin [2] = target: T2, stromelysin; conditions: read-out: In vitro inhibitory activity IC50, Stromelsin; 14C acetylated casein, 37°, 16 hours, pH 7.5
From the text: as §1

[3] = enzyme from RPMI-7951 cells, 14C gelatin, 37° C., 16 hours, read-out: In vitro inhibitory activity IC50, 72 kDa Gelatinase

**Q.** Which IC50 (Collagenase) does the source give for `CNC(=O)[C@H](Cc1ccccc1)NC(=O)[C@@H](CC(=O)NO)CC(C)C` [Comparator 1, 5-Methyl-3R-(1S-methylcarbamoyl-2-phenylethylcarbamoyl)hexanohydroxamic acid, reference compound] here?
**A.** 15 nM

**Q.** Which results are given for `CNC(=O)[C@@H](NC(=O)[C@@H](CC(=O)NO)CC(C)C)C(C)(C)C` [Comparator 3, 3R-(2,2-Dimethyl-1S-methylcarbamoyl-propylcarbamoyl)-5-methylhexanohydroxamic acid, reference compound]?
**A.** IC50 (72 kDa Gelatinase): 8 nM; IC50 (stromelysin [1]): 700 nM; IC50 (Collagenase): 10 nM

**Q.** Which results are given for `CNC(=O)[C@H](Cc1ccccc1)NC(=O)[C@H](CC(C)C)[C@H](O)C(=O)NO` [Comparator 4, 2S-Hydroxy-3R-(1S-methylcarbamoyl-2-phenylethylcarbamoyl)-5-methylhexanohydroxamic acid, reference compound]?
**A.** IC50 (72 kDa Gelatinase; [3]): 3 nM; IC50 (stromelysin [1]): 200 nM; IC50 (Collagenase): 15 nM

**Q.** Which results are given for `CNC(=O)[C@H](CC(C)C)NC(=O)[C@H](CC(C)C)[C@H](O)C(=O)NO` [Comparator 5, 2S-Hydroxy-3R-(1S-methylcarbamoyl-3-methyl-butylcarbamoyl)-5methylhexanohydroxamic acid, reference compound]?
**A.** IC50 (stromelysin [1]): 90 nM; IC50 (Collagenase): 8 nM

**Q.** Which IC50 (stromelysin [2]) does the source give for `CC(C)C[C@H](CC(=O)NO)C(=O)N[C@@H](Cc1ccccc1)C(=O)Nc1ccccc1` [Example 1, 5-Methyl-3R-(2-phenyl-1S-phenylcarbamoylethylcarbamoyl)-hexanohydroxamic acid] here?
**A.** 10 nM

**Q.** What about the IC50 (72 kDa Gelatinase; [3]) of the same compound?
**A.** 60 nM

**Q.** And the IC50 (Collagenase)?
**A.** 20 nM

**Q.** With `CC(C)C[C@H](CC(=O)NO)C(=O)N[C@H](C(=O)Nc1ccccc1)C(C)(C)C` [Example 2, 3R-(2,2-Dimethyl-1S-phenylcarbamoyl-propylcarbamoyl)-5-methyl-hexanohydroxamic acid] as the compound, how does the IC50 (72 kDa Gelatinase; [3]) read?
**A.** 30 nM

**Q.** What about the IC50 (stromelysin [1]) of the same compound?
**A.** 15 nM

**Q.** And the IC50 (Collagenase)?
**A.** 30 nM

**Q.** With `CC(C)C[C@H](CC(=O)NO)C(=O)N[C@H](C(=O)Nc1ccccn1)C(C)(C)C` [Example 3, 3R-(2,2-Dimethyl-1S-pyridin-2-ylcarbamoyl-propylcarbamoyl)-5-methyl-hexanohydroxamic acid] as the compound, how does the IC50 (72 kDa Gelatinase; [3]) read?
**A.** 30 nM

**Q.** What about the IC50 (stromelysin [1]) of the same compound?
**A.** 150 nM

**Q.** And the IC50 (Collagenase)?
**A.** 40 nM

**Q.** Which results are given for `CC(C)C[C@@H](C(=O)N[C@H](C(=O)Nc1ccccc1)C(C)(C)C)[C@H](O)C(=O)NO` [Example 4, 3R-(2,2-Dimethyl-1S-phenylcarbamoyl-propylcarbamoyl)-2S-hydroxy-5-methylhexanohydroxamic acid]?
**A.** IC50 (72 kDa Gelatinase; [3]): 5 nM; IC50 (stromelysin [1]): 9 nM; IC50 (Collagenase): 2 nM

**Q.** Which results are given for `CC(C)C[C@H](NC(=O)[C@H](CC(C)C)[C@H](O)C(=O)NO)C(=O)Nc1ccc2ccccc2c1` [Example 5, 2S-Hydroxy-3R-(3-methyl-1S-napth-2-ylcarbamoyl-butylcarbamoyl)-5-methylhexanohydroxamic acid]?
**A.** IC50 (72 kDa Gelatinase; [3]): 6 nM; IC50 (stromelysin [1]): 5 nM; IC50 (Collagenase): 30 nM

**Q.** What does the source list for `COc1ccc(NC(=O)[C@H](Cc2ccccc2)NC(=O)[C@H](CC(C)C)[C@H](O)C(=O)NO)cc1` [Example 6]?
**A.** IC50 (72 kDa Gelatinase; [3]): 8 nM; IC50 (stromelysin [1]): 3 nM; IC50 (Collagenase): 30 nM

**Q.** Which IC50 (72 kDa Gelatinase; [3]) does the source give for `CC(C)C[C@@H](C(=O)N[C@H](C(=O)Nc1ccccn1)C(C)(C)C)[C@H](O)C(=O)NO` [Example 8, 3R-(2,2-Dimethyl-1S-pyridin-2-ylcarbamoyl-propylcarbamoyl)-2S-hydroxy-5-methylhexanohydroxamic acid] here?
**A.** 15 nM

**Q.** And the IC50 (stromelysin [1])?
**A.** 30 nM

**Q.** And the IC50 (Collagenase)?
**A.** 6 nM

**Q.** How did the IC50 (72 kDa Gelatinase; [3]) turn out when `Cc1nc(NC(=O)[C@@H](NC(=O)[C@H](CC(C)C)[C@H](O)C(=O)NO)C(C)(C)C)sc1C` [Example 17, 3R-(2,2-Dimethyl-1S-(4,5-dimethylthiazol-2-ylcarbamoyl)-propylcarbamoyl)-2S-hydroxy-5-methylhexanohydroxamic acid] was run?
**A.** 30 nM

**Q.** And the IC50 (stromelysin [1])?
**A.** 20 nM

**Q.** And the IC50 (Collagenase)?
**A.** 2 nM
